Data as given in US7504420B2, “Compounds which inhibit beta-secretase activity and methods of use” (CoMentis, Inc., priority 2005, dated 2009).

Legend:
[1] = molecular target: cathepsin D (Homo sapiens, UniProt P07339); experiment: Inhibition of cathepsin D catalytic activity (Ki); type: biochemical; conditions: pH 4.0, 37° C., read-out: CDK
Method: A substrate peptide NH3-ELDLAVEFWHDR-CO2 (SEQ ID NO.:1) (used for inhibition assay of memapsin 2, memapsin 1, and cathepsin D) was dissolved at 2 mg/ml in DMSO and diluted 1:100 in 0.1 M sodium acetate, pH 4.0 just prior to assay. Inhibitor dissolved in DMSO was diluted into 0.1 M sodium acetate, pH 4.0 (1:100 dilution). A […] aliquot of the inhibitor solution in pH 4 buffer was combined with […] of 0.1 M sodium acetate containing 100-200 nM of memapsin 1, memapsin 2, or cathepsin D. Following a pre-incubation at 37° C., the proteolytic assay was initated by addition of […] of the substrate diluted into pH 4 buffer, and incubation continued at 37° C. Aliquots were removed at time intervals, and combined with an equal volume of MALDI-TOF matrix (α-hydroxycinnamic acid in acetone, 20 mg/ml) and immediately spotted in duplicate onto a stainless-steel MALDI sample plate. MALDI-TOF mass spectrometry was performed on a PE Biosystems Voyager DE instrument at the Molecular Biology Resource Center on campus. The instrument was operated at 25,000 accelerating volts in positive mode with a 150 ns delay. Ions with a mass-to-charge ratio (m/z) were detected in the range of 650-2000 atomic mass units. Data were analyzed by the Voyager Data Explorer module to obtain ion intensity data for mass species of substrates and corresponding products in a given mixture. Relative product formation was calculated as the ratio of signal intensity of the product to the sum of signal intensities of both product and the corresponding substrate. Relative product formed per unit time was obtained from non-linear regression analysis of the data representing the initial 15% formation of product using the model: 1−e^−kT, where k was the relative hydrolytic rate constant and T was time in seconds. Alternatively, relative hydrolytic rates were determined using a fluorogenic cleavage assay (Ermolieff, J. et al., Biochemistry, 39: 12450-12456 (2000)). Initial rates from either method were expressed relative to uninhibited controls and the inhibition constant Ki was determined by a non-linear fit to a tight-binding model of competitive inhibition (Bieth, J., Bayer-Symposium V: Proteinase Inhibitors, pp 463-469, Spinger-Varlag, Berlin (1994)). Results are shown in Table 1 above (M2K, CDK, and M1K columns represent, respectively, the K1 values obtained for memapsin 2, cathepsin D and memapsin 1).

[2] = molecular target: memapsin 2 (Homo sapiens, UniProt P56817); experiment: Inhibition of memapsin 2 catalytic activity (Ki); type: biochemical; conditions: memapsin 2, pH 4, 37° C.; read-out: M2K
Procedure, shortened: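 Run at 37 °C and pH 4: compound and enzyme pre-incubated 20 min before FS-2 fluorogenic substrate started hydrolysis,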

[3] = tested on: Aβ production in Chinese hamster ovary cells that over-express human APP695 with the London and Swedish mutations; experiment: Cellular Aβ IC50 determination (Aβ40 sandwich ELISA); conditions: Cricetulus griseus, CHO, 24 h, read-out: Cell, Aβ40, CHO cells over-expressing human APP695 (London and Swedish mutations), 24 h

memapsin 2, sequence (P56817 46-501): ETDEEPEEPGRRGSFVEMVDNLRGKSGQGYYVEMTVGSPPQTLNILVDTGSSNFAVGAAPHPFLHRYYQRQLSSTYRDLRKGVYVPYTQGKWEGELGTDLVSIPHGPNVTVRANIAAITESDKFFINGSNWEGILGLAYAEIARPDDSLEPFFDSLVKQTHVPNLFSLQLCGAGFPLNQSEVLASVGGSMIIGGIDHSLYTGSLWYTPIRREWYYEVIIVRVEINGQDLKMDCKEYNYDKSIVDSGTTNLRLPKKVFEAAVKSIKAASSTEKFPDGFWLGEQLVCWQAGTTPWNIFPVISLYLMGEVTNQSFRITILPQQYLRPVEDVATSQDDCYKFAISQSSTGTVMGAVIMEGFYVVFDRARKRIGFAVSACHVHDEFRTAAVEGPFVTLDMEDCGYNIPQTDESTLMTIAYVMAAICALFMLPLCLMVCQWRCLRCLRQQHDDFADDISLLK
cathepsin D, sequence (P07339 65-412, species assumed): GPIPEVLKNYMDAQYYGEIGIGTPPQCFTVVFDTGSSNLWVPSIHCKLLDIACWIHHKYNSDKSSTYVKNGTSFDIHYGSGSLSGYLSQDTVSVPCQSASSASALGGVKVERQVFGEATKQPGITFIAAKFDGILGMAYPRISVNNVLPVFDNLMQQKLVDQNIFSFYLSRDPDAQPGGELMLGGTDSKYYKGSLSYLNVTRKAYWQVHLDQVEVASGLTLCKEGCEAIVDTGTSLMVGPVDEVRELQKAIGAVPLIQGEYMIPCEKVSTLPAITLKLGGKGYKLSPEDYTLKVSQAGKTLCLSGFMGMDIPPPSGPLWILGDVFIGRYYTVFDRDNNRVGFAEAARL

| Compound | Ki [1] | Ki [2] | IC50 [3] |
| --- | --- | --- | --- |
| 4- or 6-fluoro-N3-(3-hydroxy-4-(3-methoxybenzylamino)-1-phenylbutan-2-yl)-N1-(1-phenylethyl)isophthalamide | < 300 nM | > 501 nM | – |
| CNc1cccc(CNCC(O)C(Cc2ccccc2)NC(=O)c2cc(C(=O)NC(C)c3ccccc3)cc(N(C)S(C)(=O)=O)c2)c1 (stereo not drawn) [N1-(3-hydroxy-4-(3-(methylamino)benzylamino)-1-phenylbutan-2-yl)-5-(N-methylmethylsulfonamido)-N3-(1-phenylethyl)isophthalamide] | < 300 nM | – | – |
| COc1cccc(CCNCC(O)C(Cc2ccccc2)NC(=O)c2cc(C(=O)NC(C)c3ccccc3)cc(N(C)S(C)(=O)=O)c2)c1 (stereo not drawn) [N1-(3-hydroxy-4-(3-methoxyphenethylamino)-1-phenylbutan-2-yl)-5-(N-methylmethylsulfonamido)-N3-(1-phenylethyl)isophthalamide] | < 300 nM | < 300 nM | – |
| COc1ccc(S(=O)(=O)NCC(O)C(Cc2ccccc2)NC(=O)c2cc(C(=O)NC(C)c3ccccc3)cc(N(C)S(C)(=O)=O)c2)cc1 (stereo not drawn) [N1-(3-hydroxy-4-(4-methoxyphenylsulfonamido)-1-phenylbutan-2-yl)-5-(N-methylmethylsulfonamido)-N3-(1-phenylethyl)isophthalamide] | – | > 501 nM | 1000 to 5000 nM |
| COc1cccc(CN2CCC(CNCC(O)C(Cc3ccccc3)NC(=O)c3cc(C(=O)NC(C)c4ccccc4)cc(N(C)S(C)(=O)=O)c3)CC2)c1 (stereo not drawn) [N1-(3-hydroxy-4-((1-(3-methoxybenzyl)piperidin-4-yl)methylamino)-1-phenylbutan-2-yl)-5-(N-methylmethylsulfonamido)-N3-(1-phenylethyl)isophthalamide] | – | > 501 nM | > 5000 nM |
| CC(NC(=O)c1cc(C(=O)NC(Cc2ccccc2)C(O)CNCC2CCCN2C)cc(N(C)S(C)(=O)=O)c1)c1ccccc1 (stereo not drawn) [N1-(3-hydroxy-4-((1-methylpyrrolidin-2-yl)methylamino)-1-phenylbutan-2-yl)-5-(N-methylmethylsulfonamido)-N3-(1-phenylethyl)isophthalamide] | – | > 501 nM | > 5000 nM |
| COC1CCCC(CNCC(O)C(Cc2ccccc2)NC(=O)c2cc(C(=O)NC(C)c3ccccc3)cc(N(C)S(C)(=O)=O)c2)C1 (stereo not drawn) [N1-(3-hydroxy-4-((3-methoxycyclohexyl)methylamino)-1-phenylbutan-2-yl)-5-(N-methylmethylsulfonamido)-N3-(1-phenylethyl)isophthalamide] | – | > 501 nM | 1000 to 5000 nM |
| Cc1csc(CN(C)C(=O)c2cccc(C(=O)NC(Cc3ccccc3)C(O)CNCc3cncc(OCC(C)C)c3)c2)n1 (stereo not drawn) [N1-(3-hydroxy-4-((5-isobutoxypyridin-3-yl)methylamino)-1-phenylbutan-2-yl)-N3-methyl-N3-((4-methylthiazol-2-yl)methyl)isophthalamide] | – | < 300 nM | < 1000 nM |
| Cc1csc(CN(C)C(=O)c2cccc(C(=O)NC(Cc3ccccc3)C(O)CNCc3cncc(CC(C)C)c3)c2)n1 (stereo not drawn) [N1-(3-hydroxy-4-((5-isobutylpyridin-3-yl)methylamino)-1-phenylbutan-2-yl)-N3-methyl-N3-((4-methylthiazol-2-yl)methyl)isophthalamide] | – | < 300 nM | < 1000 nM |
| Cc1csc(CN(C)C(=O)c2cccc(C(=O)NC(Cc3ccccc3)C(O)CNCc3cncc(OC(C)C)c3)c2)n1 (stereo not drawn) [N1-(3-hydroxy-4-((5-isopropoxypyridin-3-yl)methylamino)-1-phenylbutan-2-yl)-N3-methyl-N3-((4-methylthiazol-2-yl)methyl)isophthalamide] | – | < 300 nM | < 1000 nM |
| COc1cncc(CNCC(O)C(Cc2ccccc2)NC(=O)c2cccc(C(=O)N(C)Cc3nc(C)cs3)c2)c1 (stereo not drawn) [N1-(3-hydroxy-4-((5-methoxypyridin-3-yl)methylamino)-1-phenylbutan-2-yl)-N3-methyl-N3-((4-methylthiazol-2-yl)methyl)isophthalamide] | – | < 300 nM | < 1000 nM |
| COc1ccc(CCNCC(O)C(Cc2ccccc2)NC(=O)c2cc(C(=O)NC(C)c3ccccc3)cc(N(C)S(C)(=O)=O)c2)cc1OC (stereo not drawn) [N1-(4-(3,4-dimethoxyphenethylamino)-3-hydroxy-1-phenylbutan-2-yl)-5-(N-methylmethylsulfonamido)-N3-(1-phenylethyl)isophthalamide] | – | < 300 nM | < 1000 nM |
| Cc1csc(CN(C)C(=O)c2cccc(C(=O)NC(Cc3ccccc3)C(O)CNCc3cccc(OC(F)F)c3)c2)n1 (stereo not drawn) [N1-(4-(3-(difluoromethoxy)benzylamino)-3-hydroxy-1-phenylbutan-2-yl)-N3-methyl-N3-((4-methylthiazol-2-yl)methyl)isophthalamide] | – | < 300 nM | < 1000 nM |
| CCOc1cccc(CNCC(O)C(Cc2ccccc2)NC(=O)c2cc(C(=O)NC(C)c3ccccc3)cc(N(C)S(C)(=O)=O)c2)c1 (stereo not drawn) [N1-(4-(3-ethoxybenzylamino)-3-hydroxy-1-phenylbutan-2-yl)-5-(N-methylmethylsulfonamido)-N3-(1-phenylethyl)isophthalamide] | – | < 300 nM | < 1000 nM |
| C#Cc1cccc(CNCC(O)C(Cc2ccccc2)NC(=O)c2cc(C(=O)NC(C)c3ccccc3)cc(N(C)S(C)(=O)=O)c2)c1 (stereo not drawn) [N1-(4-(3-ethynylbenzylamino)-3-hydroxy-1-phenylbutan-2-yl)-5-(N-methylmethylsulfonamido)-N3-(1-phenylethyl)isophthalamide] | – | < 300 nM | < 1000 nM |
| C#Cc1cccc(CNCC(O)C(Cc2ccccc2)NC(=O)c2cccc(C(=O)N(C)Cc3nc(C)cs3)c2)c1 (stereo not drawn) [N1-(4-(3-ethynylbenzylamino)-3-hydroxy-1-phenylbutan-2-yl)-N3-methyl-N3-((4-methylthiazol-2-yl)methyl)isophthalamide] | – | < 300 nM | < 1000 nM |
| CC(NC(=O)c1cc(C(=O)NC(Cc2ccccc2)C(O)CNCc2c[nH]cn2)cc(N(C)S(C)(=O)=O)c1)c1ccccc1 (stereo not drawn) [N1-(4-((1H-imidazol-4-yl)methylamino)-3-hydroxy-1-phenylbutan-2-yl)-5-(N-methylmethylsulfonamido)-N3-(1-phenylethyl)isophthalamide] | – | 301 to 500 nM | 1000 to 5000 nM |
| CCOc1cncc(CNCC(O)C(Cc2ccccc2)NC(=O)c2cc(C(=O)NC(C)c3ccccc3)cc(N(C)S(C)(=O)=O)c2)c1 (stereo not drawn) [N1-(4-((5-ethoxypyridin-3-yl)methylamino)-3-hydroxy-1-phenylbutan-2-yl)-5-(N-methylmethylsulfonamido)-N3-(1-phenylethyl)isophthalamide] | – | < 300 nM | < 1000 nM |
| CCOc1cncc(CNCC(O)C(Cc2ccccc2)NC(=O)c2cccc(C(=O)N(C)Cc3nc(C)cs3)c2)c1 (stereo not drawn) [N1-(4-((5-ethoxypyridin-3-yl)methylamino)-3-hydroxy-1-phenylbutan-2-yl)-N3-methyl-N3-((4-methylthiazol-2-yl)methyl)isophthalamide] | – | < 300 nM | < 1000 nM |
| CC(NC(=O)c1cc(C(=O)NC(Cc2ccccc2)C(O)CNCc2ccc3c(c2)OCO3)cc(N(C)S(C)(=O)=O)c1)c1ccccc1 (stereo not drawn) [N1-(4-(benzo[d][1,3]dioxol-5-ylmethylamino)-3-hydroxy-1-phenylbutan-2-yl)-5-(N-methylmethylsulfonamido)-N3-(1-phenylethyl)isophthalamide] | – | < 300 nM | < 1000 nM |
| COc1cccc(CNCC(O)C(Cc2ccccc2)NC(=O)c2cccc(C(=O)N(C)Cc3nc(C)oc3C)c2)c1 (stereo not drawn) [N1-((2,5-dimethyloxazol-4-yl)methyl)-N3-(3-hydroxy-4-(3-methoxybenzylamino)-1-phenylbutan-2-yl)-N1-methylisophthalamide] | – | < 300 nM | < 1000 nM |
| CCc1csc(CN(C)C(=O)c2cccc(C(=O)NC(Cc3ccccc3)C(O)CNCc3cccc(OC)c3)c2)n1 (stereo not drawn) [N1-((4-ethylthiazol-2-yl)methyl)-N3-(3-hydroxy-4-(3-methoxybenzylamino)-1-phenylbutan-2-yl)-N1-methylisophthalamide] | – | < 300 nM | < 1000 nM |
| CCN(Cc1nc(C)cs1)C(=O)c1cccc(C(=O)NC(Cc2ccccc2)C(O)CNCc2cccc(OC)c2)c1 (stereo not drawn) [N1-ethyl-N3-(3-hydroxy-4-(3-methoxybenzylamino)-1-phenylbutan-2-yl)-N1-((4-methylthiazol-2-yl)methyl)isophthalamide] | – | < 300 nM | < 1000 nM |
